The numbers were not newly measured in patent US20040063658A1, “Nucleoside derivatives for treating hepatitis C virus infection” (priority 2002, published 2004), which cites them from elsewhere.

One series concerns HCV. The conditions noted are these: treatment of HCV with interferon, long term efficacy.
The conditions of series [1]: patients treated at currently recommended doses.

Consider interferon, for which the response rate result in the series on HCV is “about 25%”. As to `NC(=O)c1ncn([C@@H]2O[C@H](CO)[C@@H](O)[C@H]2O)n1` [Ribavirin, 1-β-D-ribofuranosyl-1H-1,2,-4-triazole-3-carboxamide], the “patients with significant hemolysis” value in series [1] is given as 10-20%.
